ChEMBL document CHEMBL1201862, “PubChem BioAssay data set” (2004)
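Exposure lasted 48 hours, with cells grown in 96-well plates and compounds tested at five concentrations. The concentration for 50% growth inhibition is given as GI50.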 Active and inactive are the calls of the source. Cut-off read from the data, not from the text of the source: active = GI50 up to about 1.1 µM and inactive = higher.

Experiments:
Assay in all cases: inhibition of tumour cell growth, NCI panel, 48 h
[1] = test system: Hs-578T
[2] = test system: DMS-114
[3] = test system: HOP-18
[4] = test system: KM-20L2
[5] = test system: LXFL 529
[6] = test system: M19-MEL
[7] = test system: RXF 631
[8] = test system: SNB-78
[9] = test system: XF498

**Q.** Which GI50 [1] does the source give for `CC[C@H](C)C1=C(O)[N@+]2([O-])Oc3ccc(-c4c(O)c(O)c(-c5ccc(OC(C)=O)cc5)c(OC(C)=O)c4OC(C)=O)cc3O[C@]2([C@@H](C)CC)C(=O)N1O` here?
**A.** 39.2 µM (inactive)

**Q.** Which GI50 [1] does the source give for `CC(C)CNC(=O)O` here?
**A.** > 100 µM (inactive)

**Q.** `CC1=NN(c2cc(Cl)c(S(=O)(=O)O)cc2Cl)C2(C1)C(Cl)C(=O)N2c1nc2ccccc2s1` (stereo unspecified) was tested. Which GI50 [1] did it give?
**A.** > 100 µM (inactive)

**Q.** Which GI50 [1] does the source give for `CN(C)C(=S)N/N=C\C(=N/NC(=S)N(C)C)c1ccccc1` here?
**A.** 4.57 µM (inactive)

**Q.** `O=C1O[B-](c2ccccc2)(c2ccccc2)[NH+]2CCCC12` (stereo unspecified) was tested. Which GI50 [1] did it give?
**A.** 56.6 µM (inactive)

**Q.** What does the source list for `CC[P+]1(c2ccccc2)CCCCC1`?
**A.** GI50 [2]: > 100 µM (inactive); GI50 [3]: > 100 µM (inactive); GI50 [4]: > 100 µM (inactive); GI50 [5]: > 100 µM (inactive); GI50 [6]: > 100 µM (inactive); GI50 [7]: > 100 µM (inactive); GI50 [8]: > 100 µM (inactive)

**Q.** How did the GI50 [1] turn out when `CC(C)(C)c1cc(C(C)(C)C)c2sc(=O)oc2c1O` was run?
**A.** 16.4 µM (inactive)

**Q.** `O=[N+]([O-])c1cccc(/C=N/N=c2\ccc3ccccc3[nH]2)c1O` was tested. Which GI50 [1] did it give?
**A.** 16.2 µM (inactive)

**Q.** For `CCCCCCCCCCCCCS(=O)(=O)NCC(N)=O`, which GI50 [2] is on record?
**A.** > 100 µM (inactive)

**Q.** And the GI50 [3]?
**A.** > 100 µM (inactive)

**Q.** And the GI50 [4]?
**A.** > 100 µM (inactive)

**Q.** And the GI50 [5]?
**A.** > 100 µM (inactive)

**Q.** And the GI50 [6]?
**A.** > 100 µM (inactive)

**Q.** And the GI50 [8]?
**A.** > 100 µM (inactive)

**Q.** What about the GI50 [9] of the same molecule?
**A.** 69.8 µM (inactive)

**Q.** Which results are given for `BrC(Br)([P+](c1ccccc1)(c1ccccc1)c1ccccc1)[P+](c1ccccc1)(c1ccccc1)c1ccccc1`?
**A.** GI50 [2]: 13.4 µM (inactive); GI50 [3]: > 100 µM (inactive); GI50 [4]: 24.9 µM (inactive); GI50 [5]: 15.2 µM (inactive); GI50 [6]: 13.3 µM (inactive); GI50 [8]: 19.7 µM (inactive)

**Q.** For `Cn1cnc(N2CCCC2)c(C#N)c1=O`, which GI50 [1] is on record?
**A.** > 100 µM (inactive)

**Q.** How did the GI50 [2] turn out when `CC1=C(C(=O)CC(=O)C(=O)Nc2cccc(C)c2C)Sc2ccccc2N1` was run?
**A.** > 100 µM (inactive)

**Q.** And the GI50 [3]?
**A.** > 100 µM (inactive)

**Q.** And the GI50 [5]?
**A.** > 100 µM (inactive)

**Q.** What about the GI50 [6] of the same molecule?
**A.** > 100 µM (inactive)

**Q.** What about the GI50 [8] of the same molecule?
**A.** > 100 µM (inactive)

**Q.** For `CCCC(C(=O)OC)C1N/C(=N/C#N)N(Cc2ccccc2)C1=O` (stereo unspecified), which GI50 [2] is on record?
**A.** > 100 µM (inactive)

**Q.** What about the GI50 [4] of the same molecule?
**A.** > 100 µM (inactive)

**Q.** What about the GI50 [5] of the same molecule?
**A.** > 100 µM (inactive)

**Q.** And the GI50 [6]?
**A.** > 100 µM (inactive)

**Q.** What about the GI50 [9] of the same molecule?
**A.** > 100 µM (inactive)

**Q.** With `CN(C)/C=C/C=C(/C=N/S(=O)(=O)C(F)(F)F)C1C=CN(S(=O)(=O)C(F)(F)F)C=C1` as the molecule, how does the GI50 [1] read?
**A.** 69.2 µM (inactive)

**Q.** `CC(=O)NC1C(OCc2ccccc2)OC(CO)C(O)C1OC(C)C(=O)NC(C)C(=O)NC(CCC(=O)NCCCNc1c2ccccc2nc2cccc([N+](=O)[O-])c12)C(N)=O` (stereo unspecified) was tested. Which GI50 [1] did it give?
**A.** 6.78 µM (inactive)

**Q.** How did the GI50 [1] turn out when `O=C(CC(C(=O)c1ccsc1)c1ccccc1)c1cccs1` (stereo unspecified) was run?
**A.** 58.7 µM (inactive)

**Q.** With `c1ccc(C(C2=Nc3cccc4cccc(c34)N2)c2ccccc2)cc1` as the molecule, how does the GI50 [1] read?
**A.** 27 µM (inactive)

**Q.** With `COC(=N)/C(=C1\OC(=N)C(c2ccc(Cl)cc2)=C1O)c1ccc(Cl)cc1` as the molecule, how does the GI50 [2] read?
**A.** > 100 µM (inactive)

**Q.** What about the GI50 [3] of the same molecule?
**A.** > 100 µM (inactive)

**Q.** And the GI50 [4]?
**A.** > 100 µM (inactive)

**Q.** What about the GI50 [5] of the same molecule?
**A.** 74.3 µM (inactive)

**Q.** And the GI50 [6]?
**A.** > 100 µM (inactive)

**Q.** And the GI50 [8]?
**A.** > 100 µM (inactive)

**Q.** And the GI50 [9]?
**A.** > 100 µM (inactive)

**Q.** `COP(=O)(OC)C(O)/C=C/c1ccco1` (stereo unspecified) was tested. Which GI50 [1] did it give?
**A.** > 100 µM (inactive)

**Q.** `Oc1ccc2ccccc2c1/C=C/c1ccc2c(Br)cc(Br)c(O)c2n1` was tested. Which GI50 [1] did it give?
**A.** 12.6 µM (inactive)

**Q.** Which GI50 [1] does the source give for `Nc1ccn(C2OC(C(OC3OC(CO)C(O)C(N)C3O)C(O)C(O)C(O)C(O)CO)C(N)C(O)C2O)c(=O)n1` (stereo unspecified) here?
**A.** 1.98 µM (inactive)

**Q.** Which GI50 [1] does the source give for `COC(=O)C1=NN2c3ccccc3CN([C@@H](C)c3ccccc3)C(=O)[C@@H]2C1` here?
**A.** 41.1 µM (inactive)

**Q.** `Nc1c(Cl)cc(-c2nc3ccccc3s2)cc1Cl` was tested. Which GI50 [1] did it give?
**A.** > 100 µM (inactive)

**Q.** With `COc1ccccc1N1C(=O)C2c3[nH]c4ccccc4c3C3CCC(C(C)(C)C)CC3C2C1=O` (stereo unspecified) as the molecule, how does the GI50 [2] read?
**A.** > 100 µM (inactive)

**Q.** And the GI50 [3]?
**A.** > 100 µM (inactive)

**Q.** And the GI50 [4]?
**A.** > 100 µM (inactive)

**Q.** And the GI50 [5]?
**A.** > 100 µM (inactive)

**Q.** What about the GI50 [6] of the same molecule?
**A.** > 100 µM (inactive)

**Q.** What about the GI50 [8] of the same molecule?
**A.** > 100 µM (inactive)

**Q.** And the GI50 [9]?
**A.** > 100 µM (inactive)

**Q.** With `OC(c1ccco1)C(F)(F)c1nc2ccccc2o1` (stereo unspecified) as the molecule, how does the GI50 [1] read?
**A.** > 100 µM (inactive)

**Q.** With `CC[C@H](C)C1=C(OC(C)=O)[N@+]2([O-])Oc3ccc(-c4c(O)c(O)c(-c5ccc(OC(C)=O)cc5)c(OC(C)=O)c4OC(C)=O)cc3O[C@]2([C@@H](C)CC)C(=O)N1O` as the molecule, how does the GI50 [1] read?
**A.** 29.3 µM (inactive)

**Q.** `COC1=CC(=O)C(O)=C(C[C@@]2(C)[C@@H]3CCC[C@H](COC(=O)CCCCCNC(=O)OC(C)(C)C)[C@@]3(C)CC[C@@H]2C)C1=O` was tested. Which GI50 [1] did it give?
**A.** 4.52 µM (inactive)

**Q.** With `COP(=O)(OC)[C@@](O)(c1ccccc1)[C@@H](O)[C@@H](O)c1ccccc1` as the molecule, how does the GI50 [1] read?
**A.** > 100 µM (inactive)

**Q.** With `O=C(CC(=O)N1N=C(n2ccc3ccccc32)CC1c1ccccc1)Nc1cccc(Cl)c1` (stereo unspecified) as the molecule, how does the GI50 [3] read?
**A.** > 100 µM (inactive)

**Q.** And the GI50 [4]?
**A.** > 100 µM (inactive)

**Q.** What about the GI50 [5] of the same molecule?
**A.** > 100 µM (inactive)

**Q.** And the GI50 [6]?
**A.** > 100 µM (inactive)

**Q.** What about the GI50 [7] of the same molecule?
**A.** > 100 µM (inactive)

**Q.** What about the GI50 [8] of the same molecule?
**A.** > 100 µM (inactive)

**Q.** How did the GI50 [1] turn out when `Cc1cccc(C)c1NC(=O)C(=O)CC(=O)c1sc(Nc2c(C)cccc2C)nc1C` was run?
**A.** > 100 µM (inactive)

**Q.** How did the GI50 [1] turn out when `CC(C)=CCC[C@@H](C)C1=C(Nc2ccccc2Cl)C(=O)C(C)=C(O)C1=O` was run?
**A.** 3.42 µM (inactive)

**Q.** How did the GI50 [3] turn out when `O=C(NN1C(=O)C(Cl)C1c1cccc(Cl)c1)c1ccccc1O` (stereo unspecified) was run?
**A.** 0.167 µM (active)

**Q.** What about the GI50 [5] of the same molecule?
**A.** > 100 µM (inactive)

**Q.** What about the GI50 [6] of the same molecule?
**A.** > 100 µM (inactive)

**Q.** And the GI50 [8]?
**A.** > 100 µM (inactive)

**Q.** What about the GI50 [9] of the same molecule?
**A.** 15.3 µM (inactive)

**Q.** `COc1ccc2oc(=O)c(-c3nc4ccccc4o3)cc2c1` was tested. Which GI50 [1] did it give?
**A.** > 100 µM (inactive)

**Q.** With `O=C(c1ccccc1)c1ccc2c(c1)NC(=O)c1ccccc1SSc1ccccc1C(=O)N2` as the molecule, how does the GI50 [1] read?
**A.** > 100 µM (inactive)

**Q.** Which GI50 [1] does the source give for `CC[C@](O)(CC(=O)O[C@H]1C(=O)O[C@@H]2C[C@H]3C(C)=CC(=O)[C@@H](O)[C@]3(C)[C@H]3[C@@]4(O)OC[C@]32[C@@H]1[C@@H](C)[C@H]4O)C(C)C` here?
**A.** < 0.01 µM (active)
